Columns and labels:
ATF4 = assay: Immunoblotting/qRT-PCR of ATF4 induction (GCN2-ATF4 axis) after ASNS knockdown; assay type: cell-based, human; settings: for ATF4 induction following ASNS knockdown (immunoblot): melanoma cells, 72 hr, ISRIB 200 nM, eFT508 100 nM, sunitinib 500 nM
Description: (§1) Immunoblotting: Total protein was extracted in Laemmli buffer, fractionated by SDS polyacrylamide gels and transferred to PVDF membranes (Millipore Sigma, MA, USA). After blocking with 5% non-fat dry milk (BD Biosciences, CA, USA), the membranes were incubated with primary antibodies overnight at 4° C. Afterwards, 2 hr incubation with HRP-conjugated secondary antibodies was performed. Following chemiluminescence reaction, the protein signal was visualized using the ChemiDoc imaging system (Bio-Rad, Hercules, CA) according to the manufacturer's instructions.
qPCR Analysis: 1×10^5 cells were seeded O/N per well in 6-well plates. Following treatment for 48 hr, total RNA was extracted using RNeasy Mini Kit (Qiagen, Hilden, Germany). cDNA was synthesized using oligo(dT) and random primers (AB Bioscience, MA, USA), and qPCR analysis was performed with SYBR Green (Roche, NJ, USA). Primers were designed using the PrimerQuest tool (Integrated DNA Technologies, CA, USA) and Primer Bank Actin was used as an internal control.

[1] = system: MaNRAS1 (1007) mouse melanoma cells; assay: Subcutaneous MaNRAS1 (1007) NRAS mutant melanoma model; assay type: in vivo, C57BL/6 mice; settings: L-A′ase and PD-325901 dosed as in pancreatic study
Description: (§2) In Vivo Studies: All animal studies were conducted in the SBP Medical Discovery Institute Animal Facility in accordance with the Institutional Animal Care and Use Committee guidelines. 8-week-old males C57BL/6 mice were purchased from Jackson laboratories (Bar Harbor, ME) and allowed to acclimatize for 1 week. KRAS^LSLG12D/+. p53^R172H/+; PDX^Cretg/+ (KPC/B6) pancreatic cancer cells (1×10^6, suspended in 30 μl sterile PBS) were orthotopically injected into head of the pancreas. After one week, mice were randomized and sorted into treatment groups (n=8 animal/group). L-A′ase (60 IU/animal) was administered daily for five times a week for 3 weeks intraperitoneally. MEK inhibitor PD-325901 (4 mg/kg) in 0.5% (w/v) hydroxy-propyl-methylcellulose, 0.2% (v/v) Tween 80 (Sigma) was administered by oral gavage twice a week for 3 weeks. For in vivo melanoma study, 8-week-old male C57BL/6 mice were injected subcutaneously in the flank with 2×10^5 MaNRAS1 (1007) cells. When tumors reached ˜250 mm^3, mice were randomized and sorted into treatment groups (n=8 animal/group).
(§3) Mice were maintained in a pathogen-free environment with free access to food. Tumor volume was measured blinded twice a week. Tumor volume was measured with linear calipers and calculated using the formula: ([length in millimeters x (width in millimeters)2]/2). […]

[2] = system: KRASLSLG12D/+; p53R172H/+; PDXCretg/+ (KPC/B6) pancreatic tumors; assay type: in vivo; settings: same regimen
Description: as §2, §3

[3] = system: A375 and UACC-903 melanoma cells; assay: Cell proliferation (cell count) of melanoma lines; assay type: cell-based, human; settings: PLX-4032 250 nM; for cell proliferation in combination with ASNS knockdown (si-ASNS): melanoma cells, ISRIB 200 nM
Description: siRNA Transfection: 1×10^5 cells were seeded overnight (O/N) per well in 6-well plates. Negative control (NT-siRNA) or si-RNA targeting the transcript of interest was transfected utilizing jetPRIME® transfection reagent, as per manufacturer's instructions (Polyplus, NY, USA). Following siRNAs were used: si-ASNS #1 (SASI_Hs02_00332309), si-ASNS #2 (SASI_Hs01_00116721), si-ASNS #3 (SASI_Hs01_00116722), si-ATF4 (SASI_Hs02_00332313), si-eIF4E (SASI_Hs01_00216117), si-BRAF (SASI_Hs01_00107705), si-GCN2 (SASI_Hs01_00097888), si-MNK #1 (SASI_Hs01_00228422), si-MNK1 #2 (SASI_Hs01_00228423), si-MNK1 #3 (SASI_Hs01_00228424), and the negative control si-RNA (NT-siRNA; SIC001) were purchased from Sigma-Aldrich.
Cell Proliferation: For cell proliferation, 0.3-0.5×10^5 cells were seeded O/N in triplicate in 6-well plate. Following treatment for the specified duration, cells were trypsinized and the cell count was determined with Neubauer hemocytometer (Celeromics, Cambridge, UK).

ATF4 mRNA in A375 cells = assay: Polysome profiling of ATF4 mRNA translation; assay type: cell-based, human; settings: si-ASNS plus PLX-4032 500 nM, 48 hr
Description: Polysome Profiling: Polysome profiling was performed as described previously (Gandin et al., 2014). A375 cells were seeded at 30% confluency in a 15-cm Petri dish and transfected with NT-siRNA, si-ASNS, si-MNK1 (#1), or si-ASNS+si-MNK1 for 16 hr, using JetPrime transfection reagent (Polyplus) as per manufacturer's instruction. Post-transfection, cells were replenished with fresh media containing vehicle (DMSO) or 500 nM PLX-4032 (Selleckchem) for 48 hr treatment. […] Optical density values at 260 nm (OD260) were measured in each lysate and OD260 of ˜5 were then loaded in 5-50% sucrose gradients generated using Gradient Master (Biocomp, Fredericton, NB). […] Sucrose gradients were subjected to ultracentrifugation (SW41 Ti 11E1698 rotor; Beckman 39,000 RPM for 2 hr at 4° C.) and fractionated by displacement using 60% sucrose/0.01% bromophenol blue, on ISCO Foxy fraction collector (35 sec for each fraction ˜750 μL per fraction) equipped with an ultraviolet lamp for continuous absorbance monitoring at 254 nm. […] Relative change in the transcript levels in different pools was determined by the 2-ΔΔCT method, and shown as fold-change relative to mock-treated cells. β-Actin was used as an internal control.

ERK1/2 = assay: Immunoblotting of phosphorylated MEK1/2 and ERK1/2 (MAPK signaling); assay type: cell-based, human; settings: melanoma cells, 72 hr; gefitinib 1 μM, sunitinib 500 nM
Description: as §1

**Q.** How did the “ATF4 induction and upregulation of ATF4 targets following ASNS knockdown” value (ATF4; melanoma and pancreatic cancer cell lines, rapamycin 100 nM, Torin 1 100 nM) turn out when CCC(=O)N1CCN(c2ccc(-n3c(=O)ccc4cnc5ccc(-c6cnc7ccccc7c6)cc5c43)cc2C(F)(F)F)CC1 [torin 1] was run?
**A.** blocked both ATF4 induction and upregulation of ATF4 targets seen following ASNS knockdown

**Q.** What does the source list for O=C(NOC[C@H](O)CO)c1ccc(F)c(F)c1Nc1ccc(I)cc1F [PD-325901]?
**A.** tumor growth (volume) [1]: only modest anti-tumor activity; apoptosis (cleaved caspase-3) [2]: did not result in a significant increase in apoptosis

**Q.** How did the “ATF4 induction following ASNS knockdown (immunoblot)” value (ATF4) turn out when Cc1cc(Nc2cc(N)ncn2)c(=O)n2c1C(=O)NC21CCCCC1 [eFT508] was run?
**A.** did not antagonize ATF4 induction in response to ASNS suppression

**Q.** How did the “melanoma cell proliferation, drug alone” value ([3]; BRAF mutant melanoma lines) turn out when CCCS(=O)(=O)Nc1ccc(F)c(C(=O)c2c[nH]c3ncc(-c4ccc(Cl)cc4)cc23)c1F [PLX-4032] was run?
**A.** attenuated melanoma cell proliferation

**Q.** And the “cell proliferation in combination with ASNS knockdown (si-ASNS)” value [3]?
**A.** a more effective inhibition was seen upon its combination with ASNS knockdown

**Q.** What about the “translational efficiency of ATF4 mRNA (polysome distribution)” value (ATF4 mRNA in A375 cells) of the same compound?
**A.** attenuated increase in translational efficiency of ATF4 mRNA caused by ASNS depletion

**Q.** With COc1cc2ncnc(Nc3ccc(F)c(Cl)c3)c2cc1OCCCN1CCOCC1 [gefitinib] as the compound, how does the “MEK1/2 and ERK1/2 phosphorylation under ASNS knockdown” value (ERK1/2) read?
**A.** did not alter ERK1/2 activation under ASNS knockdown conditions

**Q.** Which “ATF4 induction following ASNS knockdown (immunoblot)” value (ATF4) does the source give for O=C(COc1ccc(Cl)cc1)NC1CCC(NC(=O)COc2ccc(Cl)cc2)CC1 (stereo not shown) [ISRIB] here?
**A.** suppression of ATF4 induction

**Q.** What about the “cell proliferation in combination with ASNS knockdown (si-ASNS)” value [3] of the same compound?
**A.** potentiated anti-proliferative effects of ASNS depletion in melanoma cells
